Source: the supplement of paper PMC10307832

Key:
Experiment in all cases: relative viability (nuclei count vs DMSO), 5 days (fraction); higher = more cells survive
[1] = compound: Cc1nc(NC(=O)N2CCC[C@H]2C(N)=O)sc1-c1ccnc(C(C)(C)C(F)(F)F)c1 [Alpelisib] + O=C(CCCCCCC(=O)Nc1ccccc1)NO [Vorinostat] (partner 1 µM)
In short: (§1)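 A single step with final 0.05% Triton X-100, 1% formaldehyde and 1 ug/ml Hoechst fixed the cells and stained nuclei 5 days after treatment. Lung cancer cell lines in 1536-well plates had been treated by pin tool the day after seeding with one drug alone or a fixed anchor-drug dose plus five library-drug doses (not always all listed) in √10 steps, and nuclei were counted on 4× images. Relative viability is the ratio of nuclei in treated wells to nuclei in vehicle wells, taken as the median of duplicate plates.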

[2] = compound: Cc1nc(NC(=O)N2CCC[C@H]2C(N)=O)sc1-c1ccnc(C(C)(C)C(F)(F)F)c1 [Alpelisib] + CC1(C)CCC(c2ccc(Cl)cc2)=C(CN2CCN(c3ccc(C(=O)NS(=O)(=O)c4ccc(N[C@H](CCN5CCOCC5)CSc5ccccc5)c(S(=O)(=O)C(F)(F)F)c4)cc3)CC2)C1 [Navitoclax] (partner 0.5 µM)
In short: as §1

[3] = compound: CCCS(=O)(=O)Nc1ccc(F)c(C(=O)c2c[nH]c3ncc(-c4ccc(Cl)cc4)cc23)c1F [Vemurafenib] + N=C(N)NC(=N)NCCc1ccccc1 [Phenformin] (partner 250 µM)
In short: as §1

[4] = compound: Cc1nc(NC(=O)N2CCC[C@H]2C(N)=O)sc1-c1ccnc(C(C)(C)C(F)(F)F)c1 [Alpelisib] + CC(=O)Nc1cccc(-n2c(=O)n(C3CC3)c(=O)c3c(Nc4ccc(I)cc4F)n(C)c(=O)c(C)c32)c1 [Trametinib] (partner 0.02 µM)
In short: as §1

Cell Line	relative viability ([1]; first compound 0.04 µM)	relative viability ([1]; first compound 0.1265 µM)	relative viability ([1]; first compound 0.4 µM)	relative viability ([1]; first compound 1.265 µM)	relative viability ([1]; first compound 4 µM)	relative viability ([2]; first compound 0.04 µM)	relative viability ([2]; first compound 0.1265 µM)	relative viability ([2]; first compound 0.4 µM)	relative viability ([2]; first compound 1.265 µM)	relative viability ([2]; first compound 4 µM)	relative viability ([3]; first compound 0.03162 µM)	relative viability ([3]; first compound 0.1 µM)	relative viability ([3]; first compound 0.3162 µM)	relative viability ([3]; first compound 1 µM)	relative viability ([4]; first compound 0.04 µM)	relative viability ([4]; first compound 0.1265 µM)	relative viability ([4]; first compound 0.4 µM)	relative viability ([4]; first compound 1.265 µM)	relative viability ([4]; first compound 4 µM)
NCI-H2170	0.731	0.663	0.914	0.551	0.484	0.54	0.638	0.52	0.316	0.308	0.396	0.354	0.376	0.454	0.91	0.857	0.921	0.666	0.549
NCI-H358	0.686	0.563	0.768	0.428	0.321						0.282	0.19	0.448	0.455	0.138	0.118	0.128	0.11	0.1
NCI-H1793	0.62	0.977	0.839	0.598	0.325	0.419	0.335	0.356	0.376	0.365	0.338		0.333	0.338	0.424	0.289	0.536	0.406	0.39
NCI-H2405	1.13	1.06	1.06	0.682	0.59	1.05	0.894	0.798	0.596	0.789	0.382	0.374		0.368	0.509	0.641	0.549	0.369	0.381
NCI-H727	1.1	1.2	1.07	1.06	0.848	0.33	0.303	0.411	0.244	0.137	0.508		0.718	0.559	0.349	0.387	0.383	0.301	0.308
201T	0.928	0.928	0.949	0.842	0.831	1.16	1.16	1.2	1.15	1.14	0.421	0.491	0.42	0.456	0.7	0.723	0.716	0.645	0.586
H3255	0.778	0.733	0.826	0.613	0.496	0.463	0.47	0.524	0.384	0.407	0.3		0.342	0.332	0.649	0.541	0.642	0.422	0.391
NCI-H1395	0.742	0.565	0.773	0.62	0.537	1.18	1.12	1.45	0.984	0.927	0.425	0.433		0.495	1.07	1	1.13	0.817	0.878
IA-LM	0.882		1.32	0.92	0.867	0.894	0.727	0.736	0.628	0.718									
NCI-H1703						1.01	0.994	0.71	0.565	0.464									
LCLC-103H	0.74	0.744	0.801	0.669	0.624						0.312	0.342	0.262	0.307	0.669	0.693	0.646	0.567	0.475
NCI-H1563											0.632	0.705	0.66	0.672					
NCI-H661	0.765	0.795	0.819	0.755	0.728						0.251	0.289	0.258	0.307	0.618	0.593	0.645	0.52	0.462
SW 900	0.497		0.587	0.368	0.461						0.532	0.454	0.476	0.614	0.733		1.11	0.761	0.745
EBC-1						0.417	0.312	0.339	0.233	0.281									
NCI-H1299						1.05	1.05	1.07	1.01	1.02									
NCI-H1623											0.565		0.623	0.569					
NCI-H522	0.79	0.977	1.04	0.867	0.742						0.651	0.536	0.547	0.622	0.673	0.756	0.683	0.681	0.542
NCI-H1648	0.418	0.457	0.714	0.317	0.324										0.489	0.496	0.472	0.296	0.245
A549						1.23	1.18	1.06	0.851	0.715	0.163	0.154		0.146					
ABC-1	1.15	0.602	0.905	0.869	0.692						0.241	0.297	0.276	0.246					
Calu-6						0.834	0.905	0.882	0.633	0.621									
